Measurements reported in PMC8388802, “Study on the Structure-Activity Relationship of an Antimicrobial Peptide, Brevinin-2GUb, from the Skin Secretion of Hylarana guentheri” (Antibiotics, 2021).
In brackets after ≈: the same amount, converted by molar mass. Where a SMILES comes first, the peptide text is derived from it.

Assays:
[1] = test system: K. pneumoniae (ATCC 43816) biofilm; format: cell-based, Klebsiella pneumoniae; conditions: ATCC 43816, 24 h
Description: (§1) The anti-biofilm activities of the peptides against S. aureus (ATCC 6538), MRSA (NCTC 12493), E. faecalis (NCTC 12493), E. coli (ATCC CRM 8739), K. pneumoniae (ATCC 43816), and P. aeruginosa (ATCC CRM 9027) were evaluated.
(§2) The bacteria were inoculated in a different medium (Gram-positive bacteria were in TSB and Gram-negative bacteria were in LB) overnight, and the subculture was conducted in the same medium. When the bacteria reached a specific density, 100 µL of the dilution was added to each well of the 96-well microplate. Then 1 µL of peptide at a series of concentrations, the same concentration in the antimicrobial assay, were added into the well together with the bacteria. The plates were put into a moist shaking incubator with a speed of 200 rpm, and the temperature was set at 37 ℃. After a 24-h incubation, the liquid in the wells was aspirated, and each was washed twice by 100 µL PBS. One hundred µL of methanol were added into each well to stabilise the biofilm. After air-drying, 100 µL crystal violet was used to dye the biofilm, and they were dissolved in the 100 µL glacial acidic acid after drying. The solutions were transferred to a new microplate, and the absorbance of each well was tested by a microplate reader (EL808, Biolise BioTek Winooski, Minneapolis, MN, USA) at 595 nm wavelength. MBIC was the minimum concentration of the peptide showing no biofilm formation.
(§3) The bacteria were inoculated in a different medium (Gram-positive bacteria were in TSB and Gram-negative bacteria were in LB) overnight, and the subculture was conducted in the same medium. When the bacteria reached a specific density, 100 µL of the dilution was added to each well of the 96-well microplates. The plates were put into a moist shaking incubator with a speed of 200 rpm and the temperature was 37 ℃. After a 24 h incubation, the liquid in the wells was aspirated and they were washed twice by 100 µL PBS of each well. The peptides with the same concentrations were diluted in the corresponding medium and 100 µL were added into each well. After a 24-h incubation, the liquid in the wells was aspirated and they were washed twice by 100 µL PBS. One hundred µL of methanol were added into the wells to stabilise the biofilms. After being air-dried, 100 µL crystal violet was used to dye the biofilm, and they were dissolved in the 100 µL glacial acidic acid after drying. The solutions were transferred to a new microplate, and the absorbance of each well was tested by a microplate reader (EL808, Biolise BioTek Winooski, Minneapolis, USA) at 595 nm wavelength.

S. aureus (ATCC 6538) = format: cell-based, Staphylococcus aureus
Description: The method of antimicrobial assay is based on the Methods for Dilution Antimicrobial Susceptibility Tests for Bacteria that Grow Aerobically from the Clinical and Laboratory Standards Institute (CLSI).The antimicrobial activities of peptides were evaluated against Gram-positive bacteria S. aureus (ATCC 6538), MRSA (NCTC 12493), E. faecalis (NCTC 12493), Gram-negative bacteria E. coli (ATCC CRM 8739), K. pneumoniae (ATCC 43816), P. aeruginosa (ATCC CRM 9027), yeast C. albicans (ATCC CRM 10231) and clinical isolates MRSA (B042 V2E1 A), E. coli (ATCC BAA-2340), K. pneumoniae (ATCC BAA-1705), P. aeruginosa (B004 V2S2 B).
At the first stage of the assay, 20 μL bacteria were cultured in 100 mL Mueller Hinton Broth (MHB) or Yeast Extract–Peptone–Dextrose broth (YPD-B), respectively, and was incubated overnight. Then, microorganisms were subcultured in 20 mL fresh MHB or YPD-B to achieve cultures in the logarithmic phase (1 × 10^8 CFU/mL), which can be verified by optical density (OD) (The OD of Gram-positive bacteria is 0.23, OD of Gram-negative bacteria is 0.4, and OD of yeast is 0.15), and viable cell counts. Then, the medium was used to dilute the cultures to specific cell densities (Gram-negative and Gram-positive bacteria: 5 × 10^5 CFU/mL; yeast: 1 × 10^6 CFU/mL), which were the final concentrations of bacterial suspensions used in the assay. The peptides were dissolved in DMSO to reach a final concentration of 512 µM. A series of two-fold dilutions ranging from 512 µM to 1 µM were dosed in the 96-well plates.
Antimicrobial assays were conducted in 96-well plates, which were divided into five groups, including a negative control group (PBS), a positive control group (20 μg/mL norfloxacin for bacteria and 10 μg/mL amphotericin B for yeast), vehicle control (1% DMSO), blank control (MHB or YPD-B), and a peptide group. Each microorganism had five repetitions, and each well contained 1 µL corresponding solution and 99 µL culture. After incubation at 37 °C overnight, the absorbance of each well was tested by a microplate reader (EL808, Biolise BioTek Winooski, Minneapolis, USA) under a 550 nm wavelength. The MIC is the lowest concentration at which no bacterial growth can be observed.
The next day, 10 µL of every clear well was taken out to be cultured on a Mueller Hinton Agar (MHA) plate and incubated at 37 °C for 16–20 h. The MBC is the lowest concentration without any bacterial colonies, which means at this concentration, the peptide reduces the viability of the pathogen by more than 99.9%.

[2] = test system: horse red cells (defibrinated horse blood); assay: Haemolysis assay; format: cell-based; conditions: 2% (v/v) horse red cell suspension mixed 1:1 with peptide in PBS, 37 ℃ 2 h, absorbance 570 nm, 0.1% Triton X-100 positive control; nine replicates from three independent tests
Description: The haemolysis assay was conducted on defibrinated horse blood (TCS Biosciences Ltd., Buckingham, UK), which was washed by PBS in advance. The peptides were dissolved in PBS to the concentration of 1024 μM, and a series of two-fold dilutions was made by PBS as well. A volume of different concentrations of 120 μL peptide solutions were mixed with the same volume of 2% (v/v) of horse red cell suspension gently in a 1.5 mL tube, and the complex was incubated at 37 ℃ for 2 h. PBS and 0.1% Triton X-100 with the same volume were used as the negative and positive controls, respectively. Each group had three replicates. After the incubation, 100 μL supernatant of each tube was aspirated into a new 96-well plate, and their absorbances were analysed by a microplate reader (EL808, Biolise BioTek Winooski, Minneapolis, USA) at a wavelength of 570 nm. The equation to calculate the haemolysis of the peptides is shown below. (2) […]=(A−An)/(Ap−An)×100%
A represents the absorbance of each well in the sample groups. An represents the average absorbance of the wells in the negative control group. Ap represents the average absorbance of the wells in the positive control group.

[3] = test system: E. faecalis (NCTC 12493) biofilm; format: cell-based, Enterococcus faecalis; conditions: NCTC 12493, 24 h
Description: as §1, §2, §3

MIC (S. aureus (ATCC 6538)) [µM]	SMILES	MBEC [1] [µM]	MBIC [1] [µM]	MBC (S. aureus (ATCC 6538)) [µM]	HC50 [2]	MBEC [3] [µM]	MBIC [3] [µM]
256 (≈ 608 µg/mL)	CC[C@H](C)[C@H](NC(=O)[C@@H](NC(=O)CN)C(C)C)C(=O)N[C@H](C(=O)N[C@@H](CC(=O)O)C(=O)N[C@H](C(=O)N[C@@H](CC(C)C)C(=O)N[C@@H](CCCCN)C(=O)NCC(=O)N[C@@H](C)C(=O)N[C@@H](C)C(=O)N[C@@H](CCCCN)C(=O)N[C@H](C(=O)N[C@H](C(=O)N[C@@H](C)C(=O)N[C@@H](C)C(=O)N[C@@H](CCC(=O)O)C(=O)N[C@@H](CC(C)C)C(=O)N[C@@H](CC(C)C)C(=O)N[C@@H](CCCNC(=N)N)C(=O)N[C@@H](CCCCN)C(=O)N[C@@H](C)C(=O)N[C@@H](Cc1c[nH]cn1)C(N)=O)C(C)C)[C@@H](C)O)[C@@H](C)O)[C@@H](C)CC [tB2U] (H-GVIIDTLKGAAKTVAAELLRKAH-NH2)	>512	>512	> 512	16,393 μM	> 512	256
>512	CC[C@H](C)[C@H](NC(=O)[C@@H](NC(=O)CN)C(C)C)C(=O)N[C@H](C(=O)N[C@@H](CC(=O)O)C(=O)N[C@H](C(=O)N[C@@H](CC(C)C)C(=O)N[C@@H](CCCCN)C(=O)NCC(=O)N[C@@H](C)C(=O)N[C@@H](C)C(=O)N[C@@H](CCCCN)C(=O)N[C@H](C(=O)N[C@H](C(=O)N[C@@H](C)C(=O)N[C@@H](C)C(=O)N[C@@H](CCC(=O)O)C(=O)N[C@@H](CC(C)C)C(=O)N[C@@H](CC(C)C)C(N)=O)C(C)C)[C@@H](C)O)[C@@H](C)O)[C@@H](C)CC [tB2U-α] (H-GVIIDTLKGAAKTVAAELL-NH2)	>512	>512	>512	15,609 μM	>512	>512
512 (≈ 380 µg/mL)	CC[C@H](C)[C@H](NC(=O)[C@@H](NC(=O)CN)C(C)C)C(=O)N[C@H](C(=O)N[C@@H](CCCCN)C(=O)N[C@H](C(=O)N[C@@H](CC(C)C)C(N)=O)[C@@H](C)O)[C@@H](C)CC [Peptide 7-tB2U-K] (H-GVIIKTL-NH2)	>512	>512	> 512	11,008 μM	>512	>512
32 (≈ 62.4 µg/mL)	CC[C@H](C)[C@H](NC(=O)[C@@H](NC(=O)CN)C(C)C)C(=O)N[C@H](C(=O)N[C@@H](CCCCN)C(=O)N[C@@H](CCCCN)C(=O)N[C@@H](CC(C)C)C(=O)N[C@@H](CCCCN)C(=O)NCC(=O)N[C@@H](C)C(=O)N[C@@H](C)C(=O)N[C@@H](CCCCN)C(=O)N[C@@H](CCCCN)C(=O)N[C@H](C(=O)N[C@@H](C)C(=O)N[C@@H](C)C(=O)N[C@@H](CCCCN)C(=O)N[C@@H](CC(C)C)C(=O)N[C@@H](CC(C)C)C(N)=O)C(C)C)[C@@H](C)CC [tB2U-6K] (H-GVIIKKLKGAAKKVAAKLL-NH2)	> 512	32	32 (≈ 62.4 µg/mL)	6506 µM	> 512	64
256 (≈ 358 µg/mL)	CC[C@H](C)[C@H](NC(=O)[C@@H](NC(=O)CN)C(C)C)C(=O)N[C@H](C(=O)N[C@@H](CCCCN)C(=O)N[C@H](C(=O)N[C@@H](CC(C)C)C(=O)N[C@@H](CCCCN)C(=O)NCC(=O)N[C@@H](C)C(=O)N[C@@H](C)C(=O)N[C@@H](CCCCN)C(=O)N[C@H](C(=O)N[C@H](C(N)=O)C(C)C)[C@@H](C)O)[C@@H](C)O)[C@@H](C)CC [Peptide 14-tB2U-K] (H-GVIIKTLKGAAKTV-NH2)	>512	>512	> 512	10,834 μM	>512	>512
32 (≈ 60.6 µg/mL)	CC[C@H](C)[C@H](NC(=O)[C@@H](NC(=O)CN)C(C)C)C(=O)N[C@H](C(=O)N[C@@H](CCCCN)C(=O)N[C@H](C(=O)N[C@@H](CC(C)C)C(=O)N[C@@H](CCCCN)C(=O)NCC(=O)N[C@@H](C)C(=O)N[C@@H](C)C(=O)N[C@@H](CCCCN)C(=O)N[C@H](C(=O)N[C@H](C(=O)N[C@@H](C)C(=O)N[C@@H](C)C(=O)N[C@@H](CCCCN)C(=O)N[C@@H](CC(C)C)C(=O)N[C@@H](CC(C)C)C(N)=O)C(C)C)[C@@H](C)O)[C@@H](C)O)[C@@H](C)CC [tB2U-K] (H-GVIIKTLKGAAKTVAAKLL-NH2)	> 512	128	32 (≈ 60.6 µg/mL)	3056 µM	> 512	32
